Measurements taken from patent US6887886B2, “Therapeutic compositions comprising excess enantiomer” (Pfizer Inc., priority 2000, dated 2005).
Values joined by “and” are separate entries in the source; they are usually repeats but may differ in a detail not shown here. Equal values may be shown once.

How the values were obtained:
[1] = tested on: canine coronary microvessels, epicardial coronary artery and aorta; assay: nitrite production (vascular NO release) in canine coronary microvessels, epicardial coronary artery and aorta; format: cell-based
[2] = tested on: hypoxic Langendorff mouse hearts; assay: hypoxic Langendorff mouse hearts perfused with enantiomer: myocardial glucose uptake and time to cessation of beating; settings: hypoxic heart, 10^−7M solution
[3] = tested on: vascular smooth muscle cell; settings: in vitro; cited from earlier work
canine myocardium = assay: cardiac oxygen consumption in canine myocardium in vitro; format: cell-based
calcium channel = settings: cited from earlier work
[4] = in vivo; cited from earlier work
[5] = identical study, increasing concentrations

CCOC(=O)C1=C(COCCN)NC(C)=C(C(=O)OC)[C@H]1c1ccccc1Cl (single isomer, unassigned) [R(+) enantiomer]
effect of NO synthase inhibitor L-NAME on the increase in nitrite production [1]: wholly or partly blocked
concentration-dependent increase in nitrite production, up to ([1]; enantiomer concentration of 10^−9M): about 65 pmol/mg
free concentration at which maximum NO release as measured by nitrite production was observed ([1]; free concentration): 10^−9 M and 0.4 ng/ml
increase in survival time [2]: three-fold
reduction in myocardial glucose uptake [2]: over 50%
time to cessation of beating (TCB) ([2]; untreated 9 minutes): about 33 minutes
myocardial glucose uptake (MGU) ([2]; untreated hypoxic 0.57, normoxic 0.36): 0.27 μg/min.mg
PDGF-induced vascular smooth muscle cell migration [3]: inhibit
effect of NO synthase inhibitor L-NAME on the reduction in oxygen consumption (canine myocardium): wholly or partly blocked
reduction in oxygen consumption (canine myocardium; enantiomer concentration of 10^−5M): about 30%

CCOC(=O)C1=C(COCCN)NC(C)=C(C(=O)OC)[C@@H]1c1ccccc1Cl (single isomer, unassigned) [S(−) enantiomer]
calcium channel-blocking activity of the racemate resides in (calcium channel): largely, but not exclusively
nitrite production (in words) [1, 5]: no evidence of nitrite production
dose in excess of which adverse effects arise (marked and sustained fall in blood pressure, reduced coronary blood flow) [4]: > 0.5 mg/kg
effect of NO synthase inhibitor L-NAME on the reduction in oxygen consumption (canine myocardium): not blocked
reduction in oxygen consumption (in words) (canine myocardium; [5]): a reduction in oxygen consumption was observed
